Measured values as given in US20200037600A1, “MESOIONIC IMIDAZOPYRIDINES AS INSECTICIDES” (Bayer Aktiengesellschaft, priority 2017, published 2020).
Read-outs that look alike come from different tables or passages of the source.

What was measured:
[1] = log P by HPLC (EEC directive 79/831 Annex V.A8); type: physicochemical
Procedure: The log P values reported in the tables and preparation examples above were determined in accordance with EEC directive 79/831 Annex V.A8 by HPLC (High Performance Liquid Chromatography) using a reversed-phase column (C18). Temperature 43° C. The calibration is effected with unbranched alkan-2-ones (having 3 to 16 carbon atoms), for which the log P values are known.

Myzus persicae [2] = assay: Myzus persicae oral test; type: in vivo; details: after 5 days; for pest or weed control at 20 ppm / pest or weed control at 4 ppm: Myzus persicae, po, 120 h, read-out: efficacy
Procedure: Solvent: 100 parts by weight of acetone
To produce a suitable active compound formulation, 1 part by weight of active compound is dissolved with the stated parts by weight of solvent and made up to the desired concentration with water.
50 μl of the active compound formulation are transferred into microtitre plates and made up to a final volume of 200 μl with 150 μl of IPL41 insect medium (33%+15% sugar). Subsequently, the plates are sealed with parafilm, which a mixed population of green peach aphids (Myzus persicae) within a second microtitre plate is able to puncture and imbibe the solution.
(§1) After 5 days, the efficacy in % is determined. 100% means that all the aphids have been killed; 0% means that no aphids have been killed.

Diabrotica balteata = Diabrotica balteata spray test; type: in vivo; details: application rate 160 μg/well, beetle larvae on germinated wheat grains, after 7 days; for pest or weed control at 160 µg/disc, 160 µg/well: Diabrotica balteata, 168 h, read-out: efficacy
Procedure: Diabrotica balteata—Spray Test
(§2) Solvent: 78 parts by weight of acetone • • 1.5 parts by weight of dimethylformamide
(§3) Emulsifier: alkylaryl polyglycol ether
(§4) To produce a suitable active compound formulation, 1 part by weight of active compound is dissolved with the specified parts by weight of solvent and made up to the desired concentration with water containing an emulsifier concentration of 1000 ppm. To produce further test concentrations, the formulation is diluted with emulsifier-containing water.
Pre-swollen wheat grains (Triticum aestivum) are incubated in a multiwell plate filled with agar and a little water for one day (5 seed grains per well). The germinated wheat grains are sprayed with an active compound preparation of the desired concentration. Subsequently, each cavity is infected with 10-20 beetle larvae of Diabrotica balteata.
After 7 days, the efficacy in % is determined. 100% means that all maize plants have grown as in the untreated, uninfected control; 0% means that no maize plant has grown.

Myzus persicae [3] = assay: Myzus persicae spray test; type: in vivo; details: application rate 500 g/ha, Chinese cabbage leaf discs, after 5 days; for pest or weed control at 500 g/ha: Myzus persicae, foliar, 120 h, read-out: efficacy
Procedure: Myzus persicae—Spray Test
as §2, §3, §4
Discs of Chinese cabbage leaves (Brassica pekinensis) infested by all stages of the green peach aphid (Myzus persicae) are sprayed with an active compound formulation of the desired concentration.
as §1

Musca domestica = Musca domestica test; type: in vivo; details: application rate 100 ppm; adult houseflies; after 2 days
Procedure: (§5) Solvent: dimethyl sulfoxide
(§6) To produce a suitable active compound formulation, 10 mg of active compound are mixed with 0.5 ml of dimethyl sulfoxide, and the concentrate is diluted with water to the desired concentration.
Vessels containing a sponge treated with sugar solution and the active compound formulation of the desired concentration are populated with 10 adult houseflies (Musca domestica).
After 2 days, the kill in % is determined. 100% means that all of the flies have been killed; 0% means that none of the flies have been killed.

Lucilia cuprina = Lucilia cuprina test; type: in vivo; details: application rate 100 ppm; L1 larvae; after 2 days
Procedure: as §5, §6
About 20 L1 larvae of the Australian sheep blowfly (Lucilia cuprina) are transferred into a test vessel containing minced horsemeat and the active compound formulation of the desired concentration.
After 2 days, the kill in % is determined. 100% means that all the larvae have been killed; 0% means that no larvae have been killed.

Phaedon cochleariae = Phaedon cochleariae spray test; type: in vivo; details: foliar, 168 h, application rate 500 g/ha, larvae on Chinese cabbage leaf discs, after 7 days, read-out: efficacy
Procedure: Phaedon cochleariae—Spray Test
Solvent: 78.0 parts by weight of acetone • • 1.5 parts by weight of dimethylformamide
as §3, §4
Discs of Chinese cabbage leaves (Brassica pekinensis) are sprayed with an active compound formulation of the desired concentration and, after drying, populated with larvae of the mustard beetle (Phaedon cochleariae).
After 7 days, the efficacy in % is determined. 100% means that all the beetle larvae have been killed; 0% means that no beetle larvae have been killed.

[4] = HPLC, reversed-phase column (C18), 43° C, acidic (HCOOH), read-out: log P (HCOOH)

Compound: O=C(Cn1cc(Cl)cn1)c1c([O-])[n+]2ccccc2n1Cc1cnc(Cl)s1 [Example I-004, 2-[2-(4-Chloropyrazol-1-yl)acetyl]-1-[(2-chlorothiazol-5-yl)methyl]imidazo[1,2-a]pyridin-4-ium-3-olate]
- chromatographic logP [1, 4]: 1.83
- pest or weed control at 20 ppm (Myzus persicae [2]; application rate 20 ppm): 90%

Compound: O=C(CCl)c1c([O-])[n+]2ccccc2n1Cc1cnc(Cl)s1 [Example I-005, 2-(2-Chloroacetyl)-1-[(2-chlorothiazol-5-yl)methyl]imidazo[1,2-a]pyridin-4-ium-3-olate]
- chromatographic logP [1]: 1.58
- pest or weed control at 160 µg/disc, 160 µg/well (Diabrotica balteata): 80%
- pest or weed control at 4 ppm (Myzus persicae [2]; application rate 4 ppm): 100%
- pest or weed control at 20 ppm (Myzus persicae [2]; application rate 20 ppm): 100%

Compound: COCC(=O)c1c([O-])[n+]2ccccc2n1Cc1cnc(Cl)s1 [Example I-010, 1-[(2-Chlorothiazol-5-yl)methyl]-2-(2-methoxyacetyl)imidazo[1,2-a]pyridin-4-ium-3-olate]
- chromatographic logP [1]: 1.13
- pest or weed control at 500 g/ha (Myzus persicae [3]): 100%
- pest or weed control at 160 µg/disc, 160 µg/well (Diabrotica balteata): 100%
- pest or weed control at 4 ppm (Myzus persicae [2]; application rate 4 ppm): 100%
- pest or weed control at 20 ppm (Myzus persicae [2]; application rate 20 ppm): 100%

Compound: CCNC(=O)c1c([O-])[n+]2ccccc2n1Cc1cnc(Cl)s1 [Example I-018]
- efficacy (kill in %) (Musca domestica): 85%
- efficacy (kill in %) (Lucilia cuprina): 100%
- efficacy (Myzus persicae [3]): 100%
- efficacy (Diabrotica balteata): 100%
- efficacy (Myzus persicae [2]; application rate 4 ppm): 100%
- efficacy (Myzus persicae [2]; application rate 20 ppm): 100%

Compound: O=C(c1cccc(C(F)(F)F)c1)c1c([O-])[n+]2ccccc2n1Cc1cnc(Cl)s1 [Example I-023]
- efficacy (kill in %) (Lucilia cuprina): 95%
- efficacy (Myzus persicae [3]): 90%
- efficacy (Diabrotica balteata): 100%
- efficacy (Myzus persicae [2]; application rate 4 ppm): 100%

Compound: CC(C)NC(=O)c1c([O-])[n+]2ccccc2n1Cc1cnc(Cl)s1 [Example I-025, 1-[(2-Chlorothiazol-5-yl)methyl]-2-(isopropylcarbamoyl)imidazo[1,2-a]pyridin-4-ium-3-olate]
- efficacy (kill in %) (Musca domestica): 100%
- chromatographic logP [1]: 1.66
- pest or weed control at 4 ppm (Myzus persicae [2]; application rate 4 ppm): 100%

Compound: O=C(c1cccs1)c1c([O-])[n+]2ccccc2n1Cc1cnc(Cl)s1 [Example I-026]
- efficacy (kill in %) (Lucilia cuprina): 100%
- efficacy (Diabrotica balteata): 100%
- efficacy (Myzus persicae [2]; application rate 4 ppm): 100%

Compound: CCOC(=O)C(=O)c1c([O-])[n+]2ccccc2n1Cc1cnc(Cl)s1 [Example I-029, 1-[(2-chlorothiazol-5-yl)methyl]-2-(2-ethoxy-2-oxoacetyl)imidazo[1,2-a]pyridin-4-ium-3-olate]
- chromatographic logP [1]: 1.55
- pest or weed control at 4 ppm (Myzus persicae [2]; application rate 4 ppm): 100%

Compound: O=C(OCC1CC1)C(=O)c1c([O-])[n+]2ccccc2n1Cc1cnc(Cl)s1 [Example I-034, 1-[(2-chlorothiazol-5-yl)methyl]-2-[2-(cyclopropylmethoxy)-2-oxoacetyl]imidazo[1,2-a]pyridin-4-ium-3-olate]
- efficacy (kill in %) (Musca domestica): 100%
- chromatographic logP [1, 4]: 1.94
- pest or weed control at 500 g/ha (Myzus persicae [3]): 90%
- pest or weed control at 4 ppm (Myzus persicae [2]; application rate 4 ppm): 100%

Compound: O=C(OC1CCC1)C(=O)c1c([O-])[n+]2ccccc2n1Cc1cnc(Cl)s1 [Example I-035]
- efficacy (kill in %) (Musca domestica): 100%
- efficacy (Myzus persicae [3]): 100%
- efficacy (Myzus persicae [2]; application rate 4 ppm): 100%

Compound: CC(=O)c1c([O-])[n+]2cccc(C)c2n1Cc1cnc(Cl)s1 [Example I-044]
- pest or weed control at 500 g/ha (Myzus persicae [3]): 100%
- pest or weed control at 160 µg/disc, 160 µg/well (Diabrotica balteata): 100%
- pest or weed control at 500 g/ha (Phaedon cochleariae): 83%
- pest or weed control at 4 ppm (Myzus persicae [2]; application rate 4 ppm): 100%

Compound: COC(=O)C(=O)c1c([O-])[n+]2cccc(C)c2n1Cc1cnc(Cl)s1 [Example I-045]
- efficacy (kill in %) (Lucilia cuprina): 90%
- pest or weed control at 500 g/ha (Myzus persicae [3]): 100%
- pest or weed control at 160 µg/disc, 160 µg/well (Diabrotica balteata): 100%
- pest or weed control at 500 g/ha (Phaedon cochleariae): 100%
- pest or weed control at 4 ppm (Myzus persicae [2]; application rate 4 ppm): 100%

Compound: CO/N=C/C(=O)c1c([O-])[n+]2ccccc2n1Cc1cnc(Cl)s1 [Example I-059, 1-[(2-chlorothiazol-5-yl)methyl]-2-[(2E)-2-methoxyiminoacetyl]imidazo[1,2-a]pyridin-4-ium-3-olate]
- chromatographic logP [1]: 1.45
- pest or weed control at 500 g/ha (Myzus persicae [3]): 70%
- pest or weed control at 160 µg/disc, 160 µg/well (Diabrotica balteata): 100%
- pest or weed control at 4 ppm (Myzus persicae [2]; application rate 4 ppm): 100%

Compound: Cc1ccc[n+]2c([O-])c(C(=O)C(F)(F)C(F)(F)F)n(Cc3cnc(Cl)s3)c12 [Example I-062]
- pest or weed control at 500 g/ha (Myzus persicae [3]): 90%
- pest or weed control at 500 g/ha (Phaedon cochleariae): 100%
- pest or weed control at 4 ppm (Myzus persicae [2]; application rate 4 ppm): 100%

Compound: Cc1ccc[n+]2c([O-])c(C(=O)C(=O)OC3CCC3)n(Cc3cnc(Cl)s3)c12 [Example I-065]
- pest or weed control at 500 g/ha (Myzus persicae [3]): 90%
- pest or weed control at 500 g/ha (Phaedon cochleariae): 100%
- pest or weed control at 4 ppm (Myzus persicae [2]; application rate 4 ppm): 100%

Compound: O=C(c1c([O-])[n+]2cccc(C3CC3)c2n1Cc1cnc(Cl)s1)C(F)(F)F [Example I-078, 1-[(2-chlorothiazol-5-yl)methyl]-8-cyclopropyl-2-(2,2,2-trifluoroacetyl)imidazo[1,2-a]pyridin-4-ium-3-olate]
- chromatographic logP [1, 4]: 2.48

Compound: O=C(COCc1ccnc(Cl)c1)c1c([O-])[n+]2ccccc2n1Cc1ccc(Cl)nc1 [Example I-084, 2-[2-[(2-chloro-4-pyridyl)methoxy]acetyl]-1-[(6-chloro-3-pyridyl)methyl]imidazo[1,2-a]pyridin-4-ium-3-olate]
- chromatographic logP [1]: 1.73

Compound: O=C(c1c([O-])[n+]2cccc(-c3ccccc3)c2n1Cc1cnc(Cl)s1)C(F)(F)F [Example I-109, 1-[(2-chlorothiazol-5-yl)methyl]-8-phenyl-2-(2,2,2-trifluoroacetyl)imidazo[1,2-a]pyridin-4-ium-3-olate]
- chromatographic logP [1, 4]: 2.99

Compound: O=C(c1c([O-])[n+]2cccc(I)c2n1Cc1cnc(Cl)s1)C(F)(F)F [Example I-112, 1-[(2-chlorothiazol-5-yl)methyl]-8-iodo-2-(2,2,2-trifluoroacetyl)imidazo[1,2-a]pyridin-4-ium-3-olate]
- chromatographic logP [1]: 2.37

Compound: O=C(O)CN(Cc1cnc(Cl)s1)c1ccccn1 [Example V-1-001, 2-[(2-Chlorothiazol-5-yl)methyl-(2-pyridyl)amino]acetic Acid]
- chromatographic logP [1]: 1.21

Compound: CC(C)(C)OC(=O)CN(Cc1cnc(Cl)s1)c1ncccc1I [IV-2-002]
- chromatographic logP [1]: 4.62

Compound: CC(C)(C)OC(=O)CN(Cc1cnc(Cl)s1)c1ncccc1C1CC1 [IV-2-003]
- chromatographic logP [1, 4]: 4.73

Compound: Cc1ccc[n+]2c(O)cn(Cc3cnc(Cl)s3)c12 [VII-1-001, 1-[(2-Chlorothiazol-5-yl)methyl]-8-methylimidazo[1,2-a]pyridin-4-ium-3-ol; 2,2,2-trifluoroacetate]
- chromatographic logP [1, 4]: 0.75

Compound: Oc1cn(Cc2cnc(Cl)s2)c2c(I)ccc[n+]12 [VII-1-002, 1-[(2-chlorothiazol-5-yl)methyl]-8-iodoimidazo[1,2-a]pyridin-4-ium-3-ol 2,2,2-trifluoroacetate]
- chromatographic logP [1, 4]: 1.22

Compound: Oc1cn(Cc2cnc(Cl)s2)c2c(C3CC3)ccc[n+]12 [VII-1-003, 1-[(2-chlorothiazol-5-yl)methyl]-8-cyclopropylimidazo[1,2-a]pyridin-4-ium-3-ol 2,2,2-trifluoroacetate]
- chromatographic logP [1, 4]: 1.27

Compound: CC(C)(C)OC(=O)CN(Cc1cnc(Cl)s1)c1ccccn1 [tert-Butyl 2-[(2-chlorothiazol-5-yl)methyl-(2-pyridyl)amino]acetate]
- chromatographic logP [1]: 3.59

Compound: Cc1cccnc1N(CC(=O)OC(C)(C)C)Cc1cnc(Cl)s1 [tert-Butyl 2-[(2-chlorothiazol-5-yl)methyl-(3-methyl-2-pyridyl)amino]acetate]
- chromatographic logP [1]: 4.13
